Reference: patent US11440913B2, “Aminoimidazopyridazines as kinase inhibitors” (BRISTOL-MYERS SQUIBB COMPANY, priority 2017, dated 2022)

How the values were obtained:
[1] = target: His-GST-TVMV-hRIPK1(1-324) (Homo sapiens (Human), UniProt Q13546); experiment: RIPK1 HTRF Binding Assay; conditions: HTRF binding, 1 h at rt; read-out: RIPK1 (IC50)
In short: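 HTRF probe-displacement binding: 1 nM His-GST-TVMV-hRIPK1(1-324) (baculovirus construct), 90.6 nM probe, 0.2 nM anti-GST-Tb in 20 mM HEPES, 10 mM MgCl2, 0.015% Brij-35, 4 mM DTT, 0.05 mg/mL BSA. Incubated 1 h at rt; FRET 520/495 nm ratio, inhibition relative to DMSO-only wells.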

[2] = tested on: MLKL phosphorylation in HT29-L23 human colorectal adenocarcinoma cells; experiment: MLKL Phosphorylation High-Content Assay; type: cell-based; conditions: Homo sapiens, 6 h, necroptosis induced with TNFα, SMAC mimetic and Z-VAD, read-out: pMLKL (IC50)
In short: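 HT29-L23 cells pretreated 30 min at 37 °C with compound (6.25 to 0.106 μM final), then necroptosis induced with TNFα 35 ng/mL, SMAC mimetic 700 nM and Z-VAD 140 nM for 6 h. Fixed cells immunostained for MLKL pS358 and imaged; IC50 and Ymax from 4-parameter logistic fit.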

His-GST-TVMV-hRIPK1(1-324), sequence (Q13546 1-324): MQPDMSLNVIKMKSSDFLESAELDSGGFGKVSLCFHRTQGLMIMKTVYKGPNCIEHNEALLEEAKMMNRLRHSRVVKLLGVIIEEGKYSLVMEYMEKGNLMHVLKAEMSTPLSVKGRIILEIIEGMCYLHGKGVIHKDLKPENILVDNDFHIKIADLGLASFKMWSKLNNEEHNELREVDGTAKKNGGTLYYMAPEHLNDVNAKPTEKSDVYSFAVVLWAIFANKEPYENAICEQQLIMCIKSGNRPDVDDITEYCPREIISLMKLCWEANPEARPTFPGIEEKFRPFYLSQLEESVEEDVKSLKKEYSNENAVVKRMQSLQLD

| Structure (SMILES) | IC50 [1] | IC50 [2] |
| --- | --- | --- |
| COc1nc(C)c(-c2ccc3nc(NC(C)=O)cn3n2)cc1C(=O)NCc1cccc(C(F)(F)F)c1 [Example 305, 5-{2-acetamidoimidazo[1,2-b]pyridazin-6-yl}-2-methoxy-6-methyl-N-{[3-(trifluoromethyl)phenyl]methyl}pyridine-3-carboxamide] | 41 nM | 77 nM |
| CC(=O)Nc1cn2nc(-c3cncc(C(=O)NCc4ncccc4OC4CCCC4)c3)ccc2n1 [Example 241, N-{[3-(cyclopentyloxy)pyridin-2-yl]methyl}-5-{2-acetamidoimidazo [1,2-b]pyridazin-6-yl}pyridine-3-carboxamide] | 35 nM | 277 nM |
| CC(=O)Nc1cn2nc(-c3cc(C(=O)NCc4cccc(OCC(F)(F)F)c4)c(C)nc3C)ccc2n1 [Example 73, 5-{2-acetamidoimidazo[1,2-b]pyridazin-6-yl}-2,6-dimethyl-N-{[3-(2,2,2-trifluoroethoxy)phenyl]methyl}pyridine-3-carboxamide] | 57 nM | 82 nM |
| CC(=O)Nc1cn2nc(-c3cc(C(=O)NCc4cc(F)cc(F)c4OC4CCCOC4)c(C)nc3C)ccc2n1 (stereo not shown) [Example 59, N-{[3,5-difluoro-2-(oxan-3-yloxy)phenyl]methyl}-5-{2-acetamidoimidazo[1,2-b]pyridazin-6-yl}-2,6-dimethylpyridine-3-carboxamide] | 12 nM | 17 nM |
| COc1ncc(-c2ccc3nc(NC(C)=O)cn3n2)cc1C(=O)NCc1cc(F)cc(F)c1OC(C)C1CC1 (stereo not shown) [Example 148, N-{[2-(1-cyclopropylethoxy)-3,5-difluorophenyl]methyl}-5-(2-acetamidoimidazo[1,2-b]pyridazin-6-yl}-2-methoxypyridine-3-carboxamide] | 4 nM | 2 nM |
| [2H]C([2H])([2H])Oc1ncc(-c2ccc3nc(NC(C)=O)cn3n2)cc1C(=O)N[C@H](C)c1cc(OC(F)(F)F)ccc1F [Example 47, 5-{2-acetamidoimidazo[1,2-b]pyridazin-6-yl}-N-[(1R)-1-[2-fluoro-5-(trifluoromethoxy)phenyl]ethyl]-2-(D3)methoxypyridine-3-carboxamide] | 161 nM | 85 nM |
| Cc1ncc(-c2ccc3nc(NC(=O)CN4CCC(F)(F)CC4)cn3n2)cc1C(=O)N[C@H](C)c1cc(OC(F)(F)F)ccc1F [Example 334, 5-{2-[2-(4,4-difluoropiperidin-1-yl)acetamido]-imidazo[1,2-b]pyridazin-6-yl}-N-[(1R)-1-[2-fluoro-5-(trifluoromethoxy)-phenyl]ethyl]-2-methylpyridine-3-carboxamide] | 15 nM | 10 nM |
| CC(=O)Nc1cn2nc(-c3cnc(C)c(C(=O)NCC[C@H](O)c4ccc(Cl)cc4)c3)ccc2n1 [Example 216, N-[(3S)-3-(4-chlorophenyl)-3-hydroxypropyl]-5-{2-acetamidoimidazo[1,2-b]pyridazin-6-yl}-2-methylpyridine-3-carboxamide] | 66 nM | 397 nM |
| COc1ncc(-c2ccc3nc(NC(=O)CC#N)cn3n2)cc1C(=O)NCc1ccccc1OC(F)(F)F [Example 32, 5-[2-(2-cyanoacetamido)imidazo[1,2-b]pyridazin-6-yl]-2-methoxy-N-{[2-(trifluoromethoxy)phenyl]methyl}pyridine-3-carboxamide] | 78 nM | 177 nM |
| CC(=O)Nc1cn2nc(-c3cnc(C)c(C(=O)NC(C)c4cc(OC(F)(F)F)ccc4F)c3)ccc2n1 (single isomer, unassigned) [Example 9-1, 5-(2-acetamidoimidazo[1,2-b]pyridazin-6-yl)-N-(1-(2-fluoro-5-(trifluoromethoxy)phenyl)ethyl)-2-methylnicotinamide] | 25 nM | 25 nM |
| CCC(=O)Nc1cn2nc(-c3cnc(OC)c(C(=O)NCC[C@H](O)c4ccc(Cl)cc4)c3)ccc2n1 [Example 246, N-[(3S)-3-(4-chlorophenyl)-3-hydroxypropyl]-2-methoxy-5-{2-propanamidoimidazo[1,2-b]pyridazin-6-yl}pyridine-3-carboxamide] | 92 nM | 105 nM |
